Assay results: patent US6511966B2, “Mitochondria protecting agents for treating mitochondria associated diseases” (MitoKor, priority 1998, dated 2003)
Read-outs that look alike come from different tables or passages of the source.

Columns and labels:
[1] = tested on: SH-SY5Y human neuroblastoma cells; experiment: DCFC assay for inhibition of ROS production, cell-based aspect; details: read-out: IC50 Cell-Based (Inhibition of ROS, DCFC assay)
From the text: According to this assay, the ability of a mitochondria protecting agent of the invention to inhibit production of ROS intracellularly may be compared to its antioxidant activity in a cell-free environment. […] Non-fluorescent DCFC is converted upon oxidation to a fluorophore that can be quantified fluorimetrically. Cell membranes are also permeable to DCFC, but the charged acetate groups of DCFC are removed by intracellular esterase activity, rendering the indicator less able to diffuse back out of the cell. In the cell-based aspect of the DCFC assay for inhibition of production of ROS, cultured cells may be pre-loaded with a suitable amount of DCFC and then contacted with a mitochondria protecting agent. After an appropriate interval, free radical production in the cultured cells may be induced by contacting them with iron (III)/ascorbate and the relative mean DCFC fluorescence can be monitored as a function of time. In the cell-based aspect of the DCFC assay, monolayers of cultured adherent SH-SY5Y human neuroblastoma cells (Biedler et al., Cancer Res. 33:2643, 1973) at or near confluence were rinsed and harvested using trypsin according to standard methods. […] The excess DCFC-DA was removed by needle aspiration and each well was gently rinsed twice with HBSS. Each well then received 80 μl of HBSS and 10 μl of mitochondria protecting agent, or vehicle control, diluted into HBSS from stock solutions of dimethylformamide or dimethylsulfoxide. The final concentration of the organic solvent was maintained at or below 0.1% (v/v) in HBSS while in contact with cells. Cells were equilibrated for 15 minutes at room temperature with the mitochondria protecting agent (or vehicle control) and then 10 μl of fresh 500 μM ferric chloride/300 μM ascorbate solution was added to initiate free radical formation. Fluorescence of each microculture in the 96-well plate was quantified immediately using a Cytofluor fluorimetric plate reader (model #2350, Millipore Corp., Bedford, Mass.; excitation wavelength=485 nm, emission wavelength=[…]) and t0 fluorescence was recorded. The 96-well plates were incubated 30 minutes at 37° C./5% CO2 and fluorescence at 530 nm was again measured (t30). […] The cells were then harvested by trypsinization and counted using a hemacytometer in order to normalize the data as Δ(t30,−t0)RMF per cell. The efficacy of a candidate mitochondria protecting agent was determined by comparing its ability to inhibit ROS production relative to the vehicle control.

[2] = tested on: SH-SY5Y neuroblastoma cells; experiment: Ionomycin induced apoptosis (membrane blebbing by light microscopy); assay type: cell-based, human
Protocol: SH-SY5Y neuroblastoma cells (1×10^5 cells) are rinsed with one volume 1×PBS, and then treated with 10 μM ionomycin (Calbiochem, San Diego, Calif.) in DMEM supplemented with 10% fetal calf serum (FCS) (Gibco, Life Technologies, Grand Island, N.Y.) for 10 minutes, followed by two washes with DMEM (10% FCS). After 6h incubation at 37° C. in DMEM (10% FCS), cells are visualized by light microscopy (20X magnification). […] When cells are simultaneously treated with ionomycin and 2 mM creatine, the proportion of cells undergoing apoptosis as evidenced by membrane blebbing is reduced to approximately 10%. Candidate mitochondria protecting agents are assayed to determine whether they provides the same magnitude of protection from induction of apoptosis as does creatine in this ionomycin induced apoptosis assay.

[3] = Homo sapiens, 0.5 h, SH-SY5Y cells pre-loaded with DCFC-DA, ferric chloride/ascorbate induced free radical formation, fluorescence change over 30 minutes

## CCCc1ccc(OC(C)=O)c(OC(C)=O)c1 [(I-8)]
[1]; [3]
  IC50: 400 nM

## CC(C)(C)CC(C)(C)c1ccc(O)c(N)c1 [(I-3)]
[1]; [3]
  IC50: 65 nM

## CC(C)(c1ccc(O)cc1)c1ccc(O)c(NC(=N)N)c1 [(II-10)]
[1]; Homo sapiens, SH-SY5Y, 0.5 h
  IC50: 1000 nM

## CCCCCCCCc1ccc(O)c(N)c1 [(I-2), 2-amino4octyl phenol]
[1]; [3]
  IC50: 25 nM

## CN(CC(=O)O)C(=N)N [creatine]
[2]; cells simultaneously treated with 10 μM ionomycin and 2 mM creatine, 6h incubation at 37° C.
  proportion of cells undergoing apoptosis as evidenced by membrane blebbing: approximately 10%

## OCCCc1ccc(O)c(O)c1 [(I-5)]
[1]; [3]
  IC50: 100 nM

## CN(C)c1cc(C(C)(C)c2ccc(O)c(N(C)C)c2)ccc1O [(II-6)]
[1]; [3]
  IC50: 10 nM

## CC(C)(c1ccc(O)cc1)c1ccc(O)cc1 [(II-5), 4,4′-Isopropylidenediphenol]
[1]; [3]
  IC50: 1000 nM

## CC1=CC(C)(C)Nc2ccc(O)cc21 [(III-3), 2,2,4-trimethyl-1,2-dihydro-quinolin-6-ol]
[1]; [3]
  IC50: 70 nM

## CCCc1ccc(O)c(O)c1 [(I-6), 2-hydroxy4-propylphenol]
[1]; [3]
  IC50: 200 nM

## CCOc1ccc2c(c1)C(C)=CC(C)(C)N2 [(III-4), 6-ethoxy-1,2-dihydro-2,2,4-trimethylguinoline]
[1]; SH-SY5Y cells pre-loaded with DCFC-DA, ferric chloride/ascorbate induced free radical formation, fluorescence change over 30 minutes
  IC50: 20 nM

## Cc1c(C)c2c(c(C)c1O)CCC(C)(CNNC(=N)N)O2 (stereo not drawn) [(IV-9)]
[1]; [3]
  IC50: 1000 nM

## CC(C)(c1ccc(O)c(N)c1)c1ccc(O)c(N)c1 [(II-2)]
[1]; [3]
  IC50: 35 nM

## C[C@H](CCC(=O)O)C[C@H](C)C[C@H](C)C(=O)/C=C(\O)[C@H](C)C[C@H](C)C/C=C/[C@@H](C)[C@@H](O)[C@@H](C)[C@@H](O)C[C@@H]1CC[C@@](C)([C@H]2CC[C@@](C)([C@@H](C)O)O2)O1 [ionomycin]
[2]; 10 μM ionomycin for 10 minutes, then 6h incubation at 37° C., untreated cells <5%
  ionomycin treated cells exhibiting membrane blebbing (final stage of apoptosis): Approximately 80%

## CCCc1cc(O)ccc1O [(I-10)]
[1]; [3]
  IC50: 120 nM
